Laboratory results as given in US7575930B2, “Method for analyzing oligosaccharides from blood plasma” (priority 2005, dated 2009).

Legend:
ATIII = ATIII (Homo sapiens, UniProt P01008); test: Affinity for ATIII; format: binding
[1] = Monitoring of the plasma concentration of 3 octasaccharides in beagle dogs after subcutaneous administration (plasma filtration + anion-exchange HPLC); format: in vivo, male dogs of the beagle breed; settings: 0.5 mg/kg each
Procedure: A plasma sample with a volume of between 100 and 1000 μl is withdrawn and, if appropriate, the internal standard is added to the latter.
After homogenization, the resulting solution is introduced into a 30 kD Ultrafree 05 ultrafiltration cartridge (Millipore) rinsed beforehand with 250 μl of water by centrifuging at 10 000 rev/min for 5 minutes. The plasma is introduced into the upper part of the cartridge once or twice, if the amounts to be filtered are greater than 500 μl.
The cartridge is centrifuged at 10 000 rev/min for between 1 and 2 hours and then the filtrate is withdrawn. If appropriate, the second part of the plasma to be filtered is introduced into the upper part of the cartridge and the latter is again centrifuged. The exact amount of plasma introduced will have been weighed. The cartridge is centrifuged until the protein residue in the upper part of the cartridge represents no more than approximately 10% of the initial part.
The filtrate is withdrawn and 210 μl of 3M KCl per ml of plasma filtered are added to the concentrate.
After homogenization, the cartridge is centrifuged at 10 000 rev/min for between 1 and 4 hours. The cartridge is centrifuged until the protein residue in the upper part of the cartridge represents no more than approximately 10% of the initial part.
The second filtrate is withdrawn and 210 μl of 3M KCl per ml of plasma filtered are added a second time to the concentrate.
The third filtrate is withdrawn and 250 μl of water per ml of plasma filtered are added.
The filtrates are combined and diluted 5 fold in water, and the whole is injected directly in anion-exchange HPLC. Immediately before injection, the pH of the injected solution is adjusted to 3 by addition of 1N HCl.
The filtered plasma is analyzed by anion-exchange HPLC.
The columns used are IonPAc As11 columns (Dionex), with a length of 25 cm and an internal diameter of 2 mm. The detector used is a UV spectrophotometer equipped with an array of diodes.
The whole of the […] is injected after adjustment of the pH to 3 by addition of N HCl. The flow rate chosen is 0.22 ml/min; the column temperature is 40° C.
Elution is carried out in gradient mode. The two solutions used are:
Solvent A: NaH2PO4 2.5 mM, brought to pH 2.9 by addition of H3PO4
Solvent B: NaClO4 1N, NaH2PO4 2.5 mM, brought to pH 3.0 by addition of H3PO4
The elution gradient is as follows:
T=0 min: % B=3; T=40 min: % B=60; T=60 min: % B=80
The evolution of a mixture of three octasaccharides in the blood of male dogs of the beagle breed is monitored. These 3 octasaccharides, symbolized ΔIIaIIsIsIs, ΔIsIIaIIsIs and ΔIIaIIsIsIs^1,6-anhydro, are the main affinity octasaccharides of the octasaccharide fractions of Lovenox®.
The mixture is administered subcutaneously to 3 male dogs of the beagle breed at a target dose with regard to each of these 3 constituents of 0.5 mg/kg. The administration solution is a 0.9% NaCl solution of the mixture of the 3 octasaccharides at the target concentration of 0.5 mg/ml. Blood samples of 5 ml are withdrawn at the times 0, 0.25 h, 0.5 h, 1 h, 2 h, 4 h, 6 h, 8 h, 24 h, 30 h and 48 h after administration. The blood samples withdrawn are collected in tubes containing 400 μl of a CTAD (citrate, theophylline, adenosine, dipyridamole) mixture. After homogenization, the solution is centrifuged at 3000 g at 15° C. for 15 min. The plasma supernatant is recovered and stored at −20° C. until use.
For the treatment of the plasma before HPLC injection, approximately 1 ml of plasma is withdrawn and weighed, to which 50 μl of a solution of the internal standard at a concentration of approximately 0.02 g/l are added.
The internal standard is chosen so that it is structurally as close as possible to the products to be analyzed. Its structure is given below.
The tetrasaccharide used makes it possible to correct the potentional influence of the variations in the extraction yield.
The plasma is treated and analyzed by HPLC.

[2] = Dog 1, 0 h after subcutaneous administration
[3] = Dog 1, 0.25 h after subcutaneous administration
[4] = Dog 1, 0.5 h after subcutaneous administration
[5] = Dog 1, 1 h after subcutaneous administration
[6] = Dog 1, 2 h after subcutaneous administration
[7] = Dog 1, 4 h after subcutaneous administration
[8] = Dog 1, 6 h after subcutaneous administration
[9] = Dog 1, 8 h after subcutaneous administration
[10] = Dog 1, 24 h after subcutaneous administration
[11] = Dog 1, 30 h after subcutaneous administration
[12] = Dog 1, 48 h after subcutaneous administration
[13] = Dog 2, 0 h after subcutaneous administration
[14] = Dog 2, 0.25 h after subcutaneous administration
[15] = Dog 2, 0.5 h after subcutaneous administration
[16] = Dog 2, 1 h after subcutaneous administration
[17] = Dog 2, 2 h after subcutaneous administration
[18] = Dog 2, 4 h after subcutaneous administration
[19] = Dog 2, 6 h after subcutaneous administration
[20] = Dog 2, 8 h after subcutaneous administration
[21] = Dog 2, 24 h after subcutaneous administration
[22] = Dog 2, 30 h after subcutaneous administration
[23] = Dog 2, 48 h after subcutaneous administration
[24] = Dog 3, 0 h after subcutaneous administration
[25] = Dog 3, 0.25 h after subcutaneous administration
[26] = Dog 3, 0.5 h after subcutaneous administration
[27] = Dog 3, 1 h after subcutaneous administration
[28] = Dog 3, 2 h after subcutaneous administration
[29] = Dog 3, 4 h after subcutaneous administration
[30] = Dog 3, 6 h after subcutaneous administration
[31] = Dog 3, 8 h after subcutaneous administration
[32] = Dog 3, 24 h after subcutaneous administration
[33] = Dog 3, 30 h after subcutaneous administration
[34] = Dog 3, 48 h after subcutaneous administration

ATIII, sequence (P01008 33-464, species assumed): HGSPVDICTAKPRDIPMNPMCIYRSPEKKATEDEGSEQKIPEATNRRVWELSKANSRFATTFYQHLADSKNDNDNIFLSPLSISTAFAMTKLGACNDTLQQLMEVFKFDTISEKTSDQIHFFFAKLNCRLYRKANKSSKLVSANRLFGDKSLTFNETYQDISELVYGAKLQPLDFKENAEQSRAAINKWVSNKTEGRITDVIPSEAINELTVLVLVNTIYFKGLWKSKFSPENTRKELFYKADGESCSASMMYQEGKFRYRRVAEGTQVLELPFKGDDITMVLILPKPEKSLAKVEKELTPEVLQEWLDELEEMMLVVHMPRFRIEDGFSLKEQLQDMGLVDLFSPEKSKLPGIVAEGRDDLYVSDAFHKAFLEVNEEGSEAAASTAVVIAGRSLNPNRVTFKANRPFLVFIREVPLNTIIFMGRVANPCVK

For CC(=O)N[C@H]1[C@@H](O[C@H]2[C@H](O)[C@@H](O)[C@H](O[C@H]3[C@H](OS(=O)(=O)O)[C@@H](NS(=O)(=O)O)[C@@H](O[C@H]4[C@H](O)[C@@H](OS(=O)(=O)O)[C@H](O[C@H]5[C@H](O)[C@@H](NS(=O)(=O)O)[C@@H](O[C@H]6[C@H](O)[C@@H](OS(=O)(=O)O)[C@H](O[C@H]7[C@H](O)C(NS(=O)(=O)O)[C@@H]8OC[C@H]7O8)O[C@H]6C(=O)O)O[C@@H]5COS(=O)(=O)O)O[C@H]4C(=O)O)O[C@@H]3COS(=O)(=O)O)O[C@@H]2C(=O)O)O[C@H](COS(=O)(=O)O)[C@@H](O[C@@H]2OC(C(=O)O)=C[C@H](O)[C@H]2O)[C@@H]1O (some centres unmarked) [ΔIIaIIsIsIs^1,6-anhydro], the “affinity for ATIII” value (ATIII) was “high affinity for ATIII”, the plasma concentration [1, 2] was 0 nM and the plasma concentration [1, 3] was 50 nM. For the same compound, the plasma concentration [1, 4] was 170 nM, the plasma concentration [1, 5] was 340 nM and the plasma concentration [1, 6] was 560 nM. For the same compound, the plasma concentration [1, 7] was 440 nM, the plasma concentration [1, 8] was 370 nM and the plasma concentration [1, 9] was 300 nM. The plasma concentration [1, 10] was 60 nM, the plasma concentration [1, 11] was 30 nM and the plasma concentration [1, 12] was 10 nM. It also gave a plasma concentration [1, 13] of 0 nM, a plasma concentration [1, 14] of 50 nM and a plasma concentration [1, 15] of 100 nM. It also gave a plasma concentration [1, 16] of 210 nM, a plasma concentration [1, 17] of 320 nM and a plasma concentration [1, 18] of 300 nM. For the same compound, the plasma concentration [1, 19] was 370 nM, the plasma concentration [1, 20] was 250 nM and the plasma concentration [1, 21] was 50 nM. For the same compound, the plasma concentration [1, 22] was 30 nM, the plasma concentration [1, 23] was 10 nM and the plasma concentration [1, 24] was 0 nM. It also gave a plasma concentration [1, 25] of 60 nM, a plasma concentration [1, 26] of 170 nM and a plasma concentration [1, 27] of 240 nM. It also gave a plasma concentration [1, 28] of 340 nM, a plasma concentration [1, 29] of 460 nM and a plasma concentration [1, 30] of 380 nM. For the same compound, the plasma concentration [1, 31] was 300 nM, the plasma concentration [1, 32] was 50 nM and the plasma concentration [1, 33] was 40 nM. It also gave a plasma concentration [1, 34] of 10 nM.

For CC(=O)NC1C(OC2C(C(=O)O)OC(OC3C(COS(=O)(=O)O)OC(OC4C(C(=O)O)OC(OC5C(COS(=O)(=O)O)OC(O)C(NS(=O)(=O)O)C5O)C(OS(=O)(=O)O)C4O)C(NS(=O)(=O)O)C3OS(=O)(=O)O)C(O)C2O)OC(COS(=O)(=O)O)C(OC2OC(C(=O)O)C(OC3OC(COS(=O)(=O)O)C(OC4OC(C(=O)O)=CC(O)C4OS(=O)(=O)O)C(O)C3NS(=O)(=O)O)C(O)C2O)C1O (centres unmarked) [ΔIsIIaIIsIs], the “affinity for ATIII” value (ATIII) was “high affinity for ATIII”, the plasma concentration [1, 2] was 0 nM and the plasma concentration [1, 3] was 10 nM. It also gave a plasma concentration [1, 4] of 70 nM, a plasma concentration [1, 5] of 160 nM and a plasma concentration [1, 6] of 330 nM. It also gave a plasma concentration [1, 7] of 270 nM, a plasma concentration [1, 8] of 220 nM and a plasma concentration [1, 9] of 180 nM. The plasma concentration [1, 10] was 40 nM, the plasma concentration [1, 11] was 20 nM and the plasma concentration [1, 12] was 0 nM. It also gave a plasma concentration [1, 13] of 0 nM, a plasma concentration [1, 14] of 30 nM and a plasma concentration [1, 15] of 60 nM. The plasma concentration [1, 16] was 110 nM, the plasma concentration [1, 17] was 200 nM and the plasma concentration [1, 18] was 180 nM. For the same compound, the plasma concentration [1, 19] was 230 nM, the plasma concentration [1, 20] was 150 nM and the plasma concentration [1, 21] was 30 nM. For the same compound, the plasma concentration [1, 22] was 20 nM, the plasma concentration [1, 23] was 0 nM and the plasma concentration [1, 24] was 0 nM. The plasma concentration [1, 25] was 20 nM, the plasma concentration [1, 26] was 90 nM and the plasma concentration [1, 27] was 130 nM. The plasma concentration [1, 28] was 190 nM, the plasma concentration [1, 29] was 280 nM and the plasma concentration [1, 30] was 230 nM. For the same compound, the plasma concentration [1, 31] was 190 nM, the plasma concentration [1, 32] was 30 nM and the plasma concentration [1, 33] was 20 nM. For the same compound, the plasma concentration [1, 34] was 0 nM.
